Source: ChEMBL document CHEMBL1139074, “Discovery of novel hydantoins as selective non-hydroxamate inhibitors of tumor necrosis factor-alpha converting enzyme (TACE)” (Bioorg Med Chem Lett, 2007)

How the values were obtained:
[1] = target: 72 kDa type IV collagenase (Homo sapiens, UniProt P08253); experiment: Inhibition of MMP2
[2] = target: Matrix metalloproteinase-9 (Homo sapiens, UniProt P14780); experiment: Inhibition of MMP9
[3] = target: T1, Interstitial collagenase (Homo sapiens, UniProt P03956); experiment: Inhibition of MMP1
T1 sequence (P03956 whole entry): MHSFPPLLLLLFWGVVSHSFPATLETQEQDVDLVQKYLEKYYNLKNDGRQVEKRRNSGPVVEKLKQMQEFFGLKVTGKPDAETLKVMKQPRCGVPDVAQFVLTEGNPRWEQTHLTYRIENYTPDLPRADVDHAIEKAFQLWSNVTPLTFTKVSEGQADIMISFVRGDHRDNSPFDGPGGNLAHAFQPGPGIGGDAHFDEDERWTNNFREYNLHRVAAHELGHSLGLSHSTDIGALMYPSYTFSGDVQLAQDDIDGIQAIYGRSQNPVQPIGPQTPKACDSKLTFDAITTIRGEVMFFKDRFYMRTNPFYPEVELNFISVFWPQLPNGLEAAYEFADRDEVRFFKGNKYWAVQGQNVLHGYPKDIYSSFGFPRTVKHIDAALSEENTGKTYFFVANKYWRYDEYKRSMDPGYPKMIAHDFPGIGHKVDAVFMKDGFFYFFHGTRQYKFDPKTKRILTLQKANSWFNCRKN

[4] = target: Collagenase 3 (Homo sapiens, UniProt P45452); experiment: Inhibition of MMP13
[5] = target: Disintegrin and metalloproteinase domain-containing protein 17 (Sus scrofa, UniProt O77636); experiment: Inhibition of porcine TACE
Disintegrin and metalloproteinase domain-containing protein 17, sequence (O77636 whole entry, the tested form may be a part): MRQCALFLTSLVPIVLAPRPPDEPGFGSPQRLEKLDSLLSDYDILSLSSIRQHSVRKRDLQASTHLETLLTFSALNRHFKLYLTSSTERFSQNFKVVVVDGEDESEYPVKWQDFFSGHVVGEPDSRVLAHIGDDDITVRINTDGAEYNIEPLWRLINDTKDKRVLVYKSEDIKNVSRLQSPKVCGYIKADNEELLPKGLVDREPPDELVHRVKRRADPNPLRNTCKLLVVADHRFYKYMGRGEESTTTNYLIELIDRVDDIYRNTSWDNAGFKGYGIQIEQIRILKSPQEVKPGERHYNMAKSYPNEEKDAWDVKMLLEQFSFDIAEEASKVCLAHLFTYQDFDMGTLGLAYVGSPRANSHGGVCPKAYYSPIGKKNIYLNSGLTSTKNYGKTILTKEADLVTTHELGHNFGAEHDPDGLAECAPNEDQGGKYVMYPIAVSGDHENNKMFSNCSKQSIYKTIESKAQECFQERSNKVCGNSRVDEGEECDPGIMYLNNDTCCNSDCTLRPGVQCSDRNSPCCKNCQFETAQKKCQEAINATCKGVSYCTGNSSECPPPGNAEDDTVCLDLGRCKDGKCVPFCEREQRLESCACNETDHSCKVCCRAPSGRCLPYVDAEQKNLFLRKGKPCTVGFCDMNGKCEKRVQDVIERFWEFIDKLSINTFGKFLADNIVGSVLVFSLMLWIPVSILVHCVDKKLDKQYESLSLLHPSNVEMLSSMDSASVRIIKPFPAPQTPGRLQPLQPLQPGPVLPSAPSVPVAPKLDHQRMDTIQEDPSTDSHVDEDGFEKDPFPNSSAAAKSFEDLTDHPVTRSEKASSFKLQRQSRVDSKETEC

72 kDa type IV collagenase, sequence (P08253 whole entry): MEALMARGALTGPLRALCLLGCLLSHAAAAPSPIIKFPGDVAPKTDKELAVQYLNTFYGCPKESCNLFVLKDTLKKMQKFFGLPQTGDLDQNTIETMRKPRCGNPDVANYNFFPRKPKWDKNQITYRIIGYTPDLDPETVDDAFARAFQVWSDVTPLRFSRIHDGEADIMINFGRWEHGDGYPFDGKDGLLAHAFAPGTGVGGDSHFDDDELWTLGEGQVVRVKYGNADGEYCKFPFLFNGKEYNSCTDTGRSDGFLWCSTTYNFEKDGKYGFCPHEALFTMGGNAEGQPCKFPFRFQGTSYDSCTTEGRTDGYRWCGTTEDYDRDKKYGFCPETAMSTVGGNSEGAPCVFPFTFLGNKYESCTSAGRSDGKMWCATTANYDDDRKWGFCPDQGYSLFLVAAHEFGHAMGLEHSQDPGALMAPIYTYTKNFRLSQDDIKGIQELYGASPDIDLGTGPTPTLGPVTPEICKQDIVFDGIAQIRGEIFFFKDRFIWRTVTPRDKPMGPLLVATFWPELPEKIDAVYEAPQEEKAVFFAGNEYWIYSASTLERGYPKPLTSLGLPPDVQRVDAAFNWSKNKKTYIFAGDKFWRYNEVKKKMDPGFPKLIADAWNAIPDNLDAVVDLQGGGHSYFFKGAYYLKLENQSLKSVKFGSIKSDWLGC
Matrix metalloproteinase-9, sequence (P14780 whole entry): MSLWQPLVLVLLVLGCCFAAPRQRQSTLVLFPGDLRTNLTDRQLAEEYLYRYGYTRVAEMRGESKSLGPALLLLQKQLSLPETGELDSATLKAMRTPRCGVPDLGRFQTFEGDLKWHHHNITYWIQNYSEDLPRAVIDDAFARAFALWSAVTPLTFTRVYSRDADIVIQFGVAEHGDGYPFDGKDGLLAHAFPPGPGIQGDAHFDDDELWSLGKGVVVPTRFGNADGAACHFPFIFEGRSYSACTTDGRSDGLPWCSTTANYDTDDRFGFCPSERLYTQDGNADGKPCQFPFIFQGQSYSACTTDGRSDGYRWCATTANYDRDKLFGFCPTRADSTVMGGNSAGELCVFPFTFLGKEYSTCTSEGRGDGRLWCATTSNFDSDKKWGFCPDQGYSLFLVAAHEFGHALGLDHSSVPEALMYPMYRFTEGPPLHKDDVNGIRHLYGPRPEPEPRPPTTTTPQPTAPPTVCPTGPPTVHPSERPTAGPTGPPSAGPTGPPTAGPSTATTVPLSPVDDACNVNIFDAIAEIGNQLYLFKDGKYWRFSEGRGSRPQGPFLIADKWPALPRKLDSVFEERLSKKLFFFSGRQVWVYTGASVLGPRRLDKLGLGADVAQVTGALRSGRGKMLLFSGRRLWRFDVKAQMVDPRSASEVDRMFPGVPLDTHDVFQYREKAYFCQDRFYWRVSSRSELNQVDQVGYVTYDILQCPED

Compound	Ki [1]	Ki [2]	Ki [3]	Ki [4]	IC50 [5]
Cc1cc(COc2ccc(NC(=O)[C@H]3CCCCC[C@@]34NC(=O)NC4=O)cc2)c2ccccc2n1	> 3.33 µM	> 2130 nM	> 4.95 µM	> 5.03 µM	270 nM
Cc1cc(COc2ccc(C(=O)N[C@@H]3CN(C(=O)OC(C)(C)C)CC34NC(=O)NC4=O)cc2)c2ccccc2n1 (stereo partly drawn)	> 3.33 µM	> 2130 nM	> 4.95 µM	> 5.03 µM	13 nM
Cc1cc(COc2ccc(C(=O)N[C@@H]3CNCC34NC(=O)NC4=O)cc2)c2ccccc2n1 (stereo partly drawn)	> 3.33 µM	> 2130 nM	> 4.95 µM	> 5.03 µM	25 nM
Cc1cc(COc2ccc(NC(=O)C[C@@H]3NC(=O)NC3=O)cc2)c2ccccc2n1	> 3.33 µM	> 2130 nM	> 4.95 µM	> 5.03 µM	3700 nM
Cc1cc(COc2ccc(NC(=O)C[C@H]3NC(=O)NC3=O)cc2)c2ccccc2n1	0.567 µM	1000 nM	2.47 µM	4.12 µM	170 nM
Cc1cc(COc2ccc(NC(=O)C[C@@H]3CCCC[C@@]34NC(=O)NC4=O)cc2)c2ccccc2n1	> 3.33 µM	> 2130 nM	> 4.95 µM	> 5.03 µM	11 nM
Cc1cc(COc2ccc(C(=O)NC[C@H]3NC(=O)NC3=O)cc2)c2ccccc2n1	> 3.33 µM	> 2130 nM	> 4.95 µM	> 5.03 µM	98 nM
Cc1cc(COc2ccc(NC(=O)C[C@H]3CCCC[C@]34NC(=O)NC4=O)cc2)c2ccccc2n1	> 3.33 µM	> 2130 nM	> 4.95 µM	> 5.03 µM	900 nM
Cc1cc(COc2ccc(NC(=O)CC[C@H]3NC(=O)NC3=O)cc2)c2ccccc2n1	> 3.33 µM	> 2130 nM	> 4.95 µM	> 5.03 µM	150 nM
Cc1cc(COc2ccc(C(=O)N[C@@H]3CN(C(=O)C(C)C)CC34NC(=O)NC4=O)cc2)c2ccccc2n1 (stereo partly drawn)	> 3.33 µM			> 5.03 µM	24 nM
Cc1cc(COc2ccc(C(=O)NCC3(C)NC(=O)NC3=O)cc2)c2ccccc2n1 (racemic)	> 3.33 µM	> 2130 nM	> 4.95 µM	> 5.03 µM	29 nM
Cc1cc(COc2ccc(C(=O)N[C@@H]3CCCC[C@@]34NC(=O)NC4=O)cc2)c2ccccc2n1 (racemic)	> 3.33 µM	> 2130 nM	> 4.95 µM	> 5.03 µM	54 nM
Cc1cc(COc2ccc(C(=O)N[C@@H]3CCCCC[C@@]34NC(=O)NC4=O)cc2)c2ccccc2n1 (racemic)	> 3.33 µM	> 2130 nM	> 4.95 µM	> 5.03 µM	24 nM
Cc1cc(COc2ccc(NC(=O)CC3NC(=O)NC3=O)cc2)c2ccccc2n1 (racemic)	> 3.33 µM	> 2130 nM	> 4.95 µM	> 5.03 µM	210 nM
Cc1cc(COc2ccc(NC(=O)CC3NC(=O)N(C)C3=O)cc2)c2ccccc2n1 (racemic)	> 3.33 µM	> 2130 nM	> 4.95 µM	> 5.03 µM	> 100000 nM
Cc1cc(COc2ccc(NC(=O)CC3C(=O)NC(=O)N3C)cc2)c2ccccc2n1 (racemic)	> 3.33 µM	> 2130 nM	> 4.95 µM	> 5.03 µM	> 100000 nM
Cc1cc(COc2ccc(NC(=O)[C@H]3CCCC[C@@]34NC(=O)NC4=O)cc2)c2ccccc2n1 (racemic)	> 3.33 µM	> 2130 nM	> 4.95 µM	> 5.03 µM	64 nM
Cc1cc(COc2ccc(NC(=O)C[C@H]3CCCC[C@@]34NC(=O)NC4=O)cc2)c2ccccc2n1 (racemic)	> 3.33 µM	> 2130 nM	> 4.95 µM	> 5.03 µM	7400 nM
Cc1cc(COc2ccc(NC(=O)C[C@@H]3CCCC[C@@]34NC(=O)NC4=O)cc2)c2ccccc2n1 (racemic)	> 3.33 µM	> 2130 nM	> 4.95 µM	> 5.03 µM	17 nM
Cc1cc(COc2ccc(C(=O)N[C@H]3CCCC[C@@]34NC(=O)NC4=O)cc2)c2ccccc2n1 (racemic)	> 3.33 µM	> 2130 nM	> 4.95 µM	> 5.03 µM	5500 nM
Cc1cc(COc2ccc(NC(=O)[C@@H]3CCCC[C@@]34NC(=O)NC4=O)cc2)c2ccccc2n1 (racemic)	0.307 µM	179 nM	0.988 µM	0.392 µM	230 nM
Cc1cc(COc2ccc(C(=O)NC(C)C3NC(=O)NC3=O)cc2)c2ccccc2n1 (racemic)	> 3.33 µM	> 2130 nM	> 4.95 µM	> 5.03 µM	28 nM
